The results in this text go back to ChEMBL document CHEMBL4411314, “Evaluation of Amides, Carbamates, Sulfonamides, and Ureas of 4-Prop-2-ynylidenecycloalkylamine as Potent, Selective, and Bioavailable Negative Allosteric Modulators of Metabotropic Glutamate Receptor 5” (J Med Chem, 2019).

Where only a bound is given, the exact number is not on record here.

For data set [1], the target named is T1, Cytochrome P450 1A2 (Homo sapiens, UniProt P05177).
T1 sequence (P05177 whole entry): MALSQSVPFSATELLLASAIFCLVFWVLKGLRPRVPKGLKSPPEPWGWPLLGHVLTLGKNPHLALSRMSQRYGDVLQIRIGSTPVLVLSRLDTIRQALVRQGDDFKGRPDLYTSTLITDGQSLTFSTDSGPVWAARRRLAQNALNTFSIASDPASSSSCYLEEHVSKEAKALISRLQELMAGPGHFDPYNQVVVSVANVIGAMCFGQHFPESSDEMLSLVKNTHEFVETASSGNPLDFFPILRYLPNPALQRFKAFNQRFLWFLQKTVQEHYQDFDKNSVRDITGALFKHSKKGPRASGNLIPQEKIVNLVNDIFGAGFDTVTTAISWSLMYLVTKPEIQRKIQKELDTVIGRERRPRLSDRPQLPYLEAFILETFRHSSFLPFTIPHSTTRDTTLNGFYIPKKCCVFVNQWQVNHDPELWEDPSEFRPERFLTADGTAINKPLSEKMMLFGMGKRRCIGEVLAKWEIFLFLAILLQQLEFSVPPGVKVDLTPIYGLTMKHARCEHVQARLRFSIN
The experiment in a line: Inhibition of recombinant human CYP1A2 using 3-cyano-7-ethoxycoumarin as substrate preincubated for 10 mins followed by substrate addition and measured after 15 mins. In kind it is ADME.

Data set [2] can be described thus: Cmax in dog at 3 mg/kg, po administered as single dose by LC/MS/MS analysis. The data set is classed as ADME, organism-based, Canis lupus familiaris. Details: dose 3 mg/kg, route oral. Conditions: in vivo.
Data set [3] concerns the target Metabotropic glutamate receptor 1 (Rattus norvegicus, UniProt P23385). The experiment in a line: Displacement of [3H]R214127 from rat mGlu1 receptor expressed in CHO-TREx cell membranes after 30 mins by liquid scintillation spectrometric analysis. A general note: Displacement assays read how much labelled ligand stays bound in the presence of the test substance.
In data set [4] the test system is Rattus norvegicus. The experiment in a line: Increase in bladder volume capacity time in male Wistar Han rat at 3 mg/kg, po treated for 5 hrs. In kind it is functional.
The nature of data set [5]: Genotoxicity in Salmonella typhimurium TA100 by Ames test. Particulars: salmonella enterica subsp. enterica serovar typhimurium. In kind it is toxicity. (In general: The Ames test detects mutagens through reverse mutation in bacteria.)
The test system of data set [6] is Rattus norvegicus. The experiment in a line: Anxiolytic activity in po dosed Wistar Han rat assessed as increase number of electric shock administered as single dose 1 hr before test by vogel conflict test. In kind it is functional, organism-based.
A short description of data set [7]: Tmax in rat at 3 mg/kg, po administered as single dose by LC/MS/MS analysis. In kind it is ADME, organism-based. Conditions: in vivo.
Data set [8] addresses Sodium channel protein type 5 subunit alpha (Homo sapiens, UniProt Q14524). The experiment in a line: Inhibition of NaV1.5 (unknown origin).
Data set [9] is described as follows: Clearance in dog at 1 mg/kg, iv administered as single dose by LC/MS/MS analysis. The data set is classed as ADME, organism-based, Canis lupus familiaris. Conditions: in vivo.
Data set [10] addresses T2, Cytochrome P450 2C8 (Homo sapiens, UniProt P10632).
T2 sequence (P10632 whole entry): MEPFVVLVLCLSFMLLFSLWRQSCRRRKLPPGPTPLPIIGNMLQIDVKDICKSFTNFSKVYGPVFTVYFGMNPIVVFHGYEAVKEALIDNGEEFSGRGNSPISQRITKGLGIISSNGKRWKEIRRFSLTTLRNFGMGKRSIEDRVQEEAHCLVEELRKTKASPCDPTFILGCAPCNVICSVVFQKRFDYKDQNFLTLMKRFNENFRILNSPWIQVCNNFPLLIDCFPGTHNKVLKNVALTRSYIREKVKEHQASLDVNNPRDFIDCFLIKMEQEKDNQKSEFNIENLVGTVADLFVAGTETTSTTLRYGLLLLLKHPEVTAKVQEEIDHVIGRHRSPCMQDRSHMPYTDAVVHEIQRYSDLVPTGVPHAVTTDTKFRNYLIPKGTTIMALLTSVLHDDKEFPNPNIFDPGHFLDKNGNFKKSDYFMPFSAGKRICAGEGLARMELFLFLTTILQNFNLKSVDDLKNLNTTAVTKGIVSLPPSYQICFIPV
The experiment in a line: Inhibition of recombinant human CYP2C8. The data set is classed as ADME.

Data set [11] has as its system Rattus norvegicus. The experiment in a line: Reduction in isovolumic volume-induced voiding contraction in female Wistar Han rat assessed as disappearance time at 0.01 to 0.1 mg/kg, iv after 15 mins. Conditions: 0.25 h. The data set is classed as functional.
Data set [12] is described as follows: Half life in dog at 1 mg/kg, iv administered as single dose by LC/MS/MS analysis. The data set is classed as ADME, organism-based, Canis lupus familiaris. Conditions: in vivo.
Data set [13] deals with T3, Cytochrome P450 2B6 (Homo sapiens, UniProt P20813).
T3 sequence (P20813 whole entry): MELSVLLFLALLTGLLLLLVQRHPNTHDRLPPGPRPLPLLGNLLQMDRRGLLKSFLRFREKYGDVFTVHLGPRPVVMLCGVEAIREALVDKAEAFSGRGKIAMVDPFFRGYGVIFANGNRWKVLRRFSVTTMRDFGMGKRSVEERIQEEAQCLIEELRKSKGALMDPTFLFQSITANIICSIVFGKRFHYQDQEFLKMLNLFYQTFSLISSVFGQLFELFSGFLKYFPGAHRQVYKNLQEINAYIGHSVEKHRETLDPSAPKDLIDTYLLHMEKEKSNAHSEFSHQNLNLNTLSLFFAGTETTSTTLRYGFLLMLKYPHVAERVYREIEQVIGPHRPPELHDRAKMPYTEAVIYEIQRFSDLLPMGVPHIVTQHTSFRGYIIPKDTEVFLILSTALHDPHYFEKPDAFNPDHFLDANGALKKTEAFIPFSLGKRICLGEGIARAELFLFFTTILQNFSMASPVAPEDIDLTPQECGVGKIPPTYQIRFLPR
The experiment in a line: Inhibition of recombinant human CYP2B6. The data set is classed as ADME.

Chain of Metabotropic glutamate receptor 1 (P23385 whole entry): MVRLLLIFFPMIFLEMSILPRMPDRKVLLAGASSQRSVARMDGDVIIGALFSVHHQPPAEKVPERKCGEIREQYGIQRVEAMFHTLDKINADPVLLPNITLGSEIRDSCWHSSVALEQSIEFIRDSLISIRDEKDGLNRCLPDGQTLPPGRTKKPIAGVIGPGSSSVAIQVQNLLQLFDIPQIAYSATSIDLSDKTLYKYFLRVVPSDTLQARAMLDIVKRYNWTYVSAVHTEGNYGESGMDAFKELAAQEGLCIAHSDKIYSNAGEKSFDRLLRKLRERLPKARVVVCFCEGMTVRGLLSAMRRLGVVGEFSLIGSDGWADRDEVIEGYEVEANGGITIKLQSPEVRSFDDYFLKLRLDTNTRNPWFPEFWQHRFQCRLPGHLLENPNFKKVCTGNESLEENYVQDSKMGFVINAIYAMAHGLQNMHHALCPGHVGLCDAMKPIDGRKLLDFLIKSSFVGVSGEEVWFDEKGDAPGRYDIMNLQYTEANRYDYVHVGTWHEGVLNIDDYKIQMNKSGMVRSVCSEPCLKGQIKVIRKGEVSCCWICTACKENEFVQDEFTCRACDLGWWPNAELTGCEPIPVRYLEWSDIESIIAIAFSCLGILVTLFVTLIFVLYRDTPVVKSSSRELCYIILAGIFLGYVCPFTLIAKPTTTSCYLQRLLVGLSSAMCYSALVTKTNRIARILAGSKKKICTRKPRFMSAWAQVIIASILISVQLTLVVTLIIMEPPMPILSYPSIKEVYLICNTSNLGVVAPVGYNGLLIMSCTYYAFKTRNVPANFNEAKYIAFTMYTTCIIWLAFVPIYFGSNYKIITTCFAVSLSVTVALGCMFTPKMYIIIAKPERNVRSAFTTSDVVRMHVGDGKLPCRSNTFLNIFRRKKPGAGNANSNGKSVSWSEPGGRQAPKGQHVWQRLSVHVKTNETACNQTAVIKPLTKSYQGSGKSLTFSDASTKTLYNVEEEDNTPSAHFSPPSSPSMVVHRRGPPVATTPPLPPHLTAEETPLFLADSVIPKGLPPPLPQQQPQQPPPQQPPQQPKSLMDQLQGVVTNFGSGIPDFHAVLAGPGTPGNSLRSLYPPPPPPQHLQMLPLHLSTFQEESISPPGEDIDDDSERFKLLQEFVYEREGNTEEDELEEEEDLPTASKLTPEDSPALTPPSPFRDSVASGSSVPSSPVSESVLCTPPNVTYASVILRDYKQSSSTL
Chain of Sodium channel protein type 5 subunit alpha (Q14524 whole entry): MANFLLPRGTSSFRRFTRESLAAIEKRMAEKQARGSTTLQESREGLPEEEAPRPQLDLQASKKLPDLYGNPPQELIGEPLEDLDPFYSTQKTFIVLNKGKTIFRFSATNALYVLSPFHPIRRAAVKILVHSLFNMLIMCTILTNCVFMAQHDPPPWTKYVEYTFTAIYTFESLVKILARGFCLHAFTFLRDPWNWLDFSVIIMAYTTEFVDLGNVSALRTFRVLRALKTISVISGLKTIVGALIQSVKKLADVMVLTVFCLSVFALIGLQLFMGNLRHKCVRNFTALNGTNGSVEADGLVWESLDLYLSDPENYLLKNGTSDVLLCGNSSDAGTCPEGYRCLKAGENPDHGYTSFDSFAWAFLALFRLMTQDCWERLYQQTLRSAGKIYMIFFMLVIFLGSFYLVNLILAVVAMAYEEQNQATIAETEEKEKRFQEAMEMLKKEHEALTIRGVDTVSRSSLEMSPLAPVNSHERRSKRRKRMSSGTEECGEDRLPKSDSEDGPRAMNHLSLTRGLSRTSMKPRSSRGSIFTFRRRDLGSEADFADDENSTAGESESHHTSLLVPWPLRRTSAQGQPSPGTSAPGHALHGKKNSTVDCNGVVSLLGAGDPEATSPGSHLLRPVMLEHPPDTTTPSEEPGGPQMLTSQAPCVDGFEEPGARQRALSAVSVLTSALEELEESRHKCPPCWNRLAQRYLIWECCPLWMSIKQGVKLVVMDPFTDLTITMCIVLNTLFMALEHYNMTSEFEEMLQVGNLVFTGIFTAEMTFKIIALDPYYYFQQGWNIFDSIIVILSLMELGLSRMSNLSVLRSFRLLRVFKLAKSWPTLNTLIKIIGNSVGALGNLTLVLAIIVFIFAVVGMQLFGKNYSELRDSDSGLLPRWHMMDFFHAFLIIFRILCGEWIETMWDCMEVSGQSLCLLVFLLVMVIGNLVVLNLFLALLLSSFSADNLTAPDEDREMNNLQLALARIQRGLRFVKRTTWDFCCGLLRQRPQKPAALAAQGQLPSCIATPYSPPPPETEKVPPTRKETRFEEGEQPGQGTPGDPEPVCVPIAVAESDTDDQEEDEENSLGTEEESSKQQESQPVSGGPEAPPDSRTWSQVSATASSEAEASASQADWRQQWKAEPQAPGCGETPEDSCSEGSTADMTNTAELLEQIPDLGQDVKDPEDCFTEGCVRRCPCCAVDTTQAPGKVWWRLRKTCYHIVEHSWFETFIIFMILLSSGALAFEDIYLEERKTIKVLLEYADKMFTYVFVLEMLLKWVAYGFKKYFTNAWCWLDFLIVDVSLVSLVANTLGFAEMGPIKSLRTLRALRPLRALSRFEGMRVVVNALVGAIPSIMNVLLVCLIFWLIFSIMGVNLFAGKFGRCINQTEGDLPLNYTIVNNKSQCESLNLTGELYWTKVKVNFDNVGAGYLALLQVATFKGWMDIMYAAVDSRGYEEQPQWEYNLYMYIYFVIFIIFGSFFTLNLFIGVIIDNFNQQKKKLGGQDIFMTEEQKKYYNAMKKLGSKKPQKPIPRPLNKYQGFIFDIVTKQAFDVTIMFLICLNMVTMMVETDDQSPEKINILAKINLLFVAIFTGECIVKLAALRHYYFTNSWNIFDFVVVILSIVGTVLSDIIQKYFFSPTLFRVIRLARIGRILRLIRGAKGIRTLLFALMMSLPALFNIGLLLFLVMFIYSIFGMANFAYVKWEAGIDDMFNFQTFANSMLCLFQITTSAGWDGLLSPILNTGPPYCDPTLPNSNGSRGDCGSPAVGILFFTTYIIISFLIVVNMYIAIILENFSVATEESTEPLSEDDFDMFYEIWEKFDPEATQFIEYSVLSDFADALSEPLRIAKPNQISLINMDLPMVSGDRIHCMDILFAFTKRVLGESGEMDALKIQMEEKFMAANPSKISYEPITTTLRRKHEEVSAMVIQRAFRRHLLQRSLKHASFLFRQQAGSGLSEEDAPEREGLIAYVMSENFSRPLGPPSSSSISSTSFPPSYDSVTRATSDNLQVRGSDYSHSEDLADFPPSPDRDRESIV

One may read the IC50 as the concentration needed to halve the response being measured. One may read the Cmax as the maximum level reached in the sampled fluid or tissue. For orientation: Ki means the equilibrium dissociation constant of an inhibitor or competing ligand from its target. The low end stands for tighter binding, the high end for weaker binding. Broadly, the Tmax is the time from dosing to the highest level. By clearance is commonly meant the volume of plasma or blood freed of the substance per unit of time. Low readings indicate a low capacity for elimination, high ones a high capacity for elimination. Broadly, the half-life is the time in which the quantity being followed falls by half. Read a high half-life as slow loss. On to `CCOC(=O)N1CC/C(=C\C#Cc2cccc(C)n2)C1`, for which the IC50 in data set [1] is 4.52 µM; in data set [8], 12.3 µM; in data set [10], more than 20 µM; in data set [13] it was more than 20 µM. Also, the peak level in data set [2] (Cmax) was 584 ng/mL. For the same compound, the Ki in data set [3] was more than 1 µM. Also, in data set [4], the Time is more than 4 h. Besides, the Activity result is “Non-Toxic” in [5] and “Dose-dependent effect” in [6]. For the same compound, the Tmax in [7] worked out at 60 min. The compound also registered a clearance in data set [9] of 88 mL/min/kg. The ED10 in data set [11] stood at 0.015 mg/kg. Further, in data set [12], the half-life was 54.6 min.
